System: 3T3-L1 adipocytes
Assay: GSV-PM fusion in live adipocytes (IRAP-pHluorin, TIRF microscopy)
Format: cell-based, mouse
Text: FIG. 3, panels A-C, show knockdown of CDP138 in live 3T3-L1 adipocytes inhibits insulin-stimulated membrane fusion between GLUT4 storage vesicles (GSV) and the PM, but not GLUT4-EGFP trafficking to the TIRF zone. (A): Schematic illustration of the molecular probes and TIRF microcopy-based live cell assays for GLUT4 trafficking and GSV-PM fusion. (B) and (C): The effect of CDP138 knockdown on insulin-stimulated IRAP-pHluorin insertion into the PM (B), and accumulation of GLUT4-EGFP in the TIRF zone (C). Adipocytes (day 4) were transfected by electroporation with plasmid DNA encoding IRAP-pHluorin or GLUT4-EGFP, together with either the scrambled siRNA or smartPool siRNA against mouse 5730419I09Rik. Cells were reseeded on glass-bottomed dishes for 72 hrs, serum starved for 2 hr then stimulated with 100 nM insulin for 30 min. Analyses were performed in a cell warmer adapted for a Nikon TiE with fully motorized combined dual laser (488 and 561 nm). Images were acquired every 3 min immediately after addition of insulin and analyzed as described in the Supplementary Experimental Procedures. Perfect focus system and multiple points capture program (NIS Element) were used to acquire images from multiple positively transfected cells at each time point. […]
Total Internal Reflection Fluorescence (TIRF) Microscopy: Nikon (Melville, N.Y.) TI-TIRF-E, which was based on the objective lens method, was used to perform all the TIRF experiments. […] Positively transfected adipocytes were identified, and the insulin-stimulated IRAP vesicle-PM fusion events or GLUT4-EGFP trafficking to the TIRF zone were recorded every 3 min for a 30 min period using Nikon Eclipse-Ti TIRF microscope. […]
Image Analysis and Quantification: TIRF and wide field fluorescence microscopy were performed using a Nikon inverted microscope (Melville, N.Y.) with a cooled charge-coupled device camera. […]

In the case of insulin, the “stimulation of GSV fusion with the PM in the TIRF zone” value is reported as “significantly stimulates”.
